Three compounds from patent publication US8378117B2 (priority 2005, dated 2013) can be followed below.

The target of assay [1] is T1, CB1 receptor (Homo sapiens, UniProt P21554).
T1 construct: expressed in transfected cells
Kind of assay: Binding assay for CB1 agonists or inverse agonists (SK-N-MC membranes, [3H]-CP-55,940). In short, it runs like this: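 Membranes from SK-N-MC cells stably expressing human CB1 incubated with compound and [3H]-CP-55,940 ([…]) for 90 min at 30° C in Tris-HCl pH 7.5, MgCl2, EDTA, fatty-acid-free BSA. Non-specific binding defined with 10 uM WIN 55,212; filtration, scintillation count; IC50 by linear regression.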

Assay [2] deals with T2, CB2 receptor (Homo sapiens, UniProt P34972).
T2 construct: expressed in transfected cells
T2 sequence (P34972 whole entry): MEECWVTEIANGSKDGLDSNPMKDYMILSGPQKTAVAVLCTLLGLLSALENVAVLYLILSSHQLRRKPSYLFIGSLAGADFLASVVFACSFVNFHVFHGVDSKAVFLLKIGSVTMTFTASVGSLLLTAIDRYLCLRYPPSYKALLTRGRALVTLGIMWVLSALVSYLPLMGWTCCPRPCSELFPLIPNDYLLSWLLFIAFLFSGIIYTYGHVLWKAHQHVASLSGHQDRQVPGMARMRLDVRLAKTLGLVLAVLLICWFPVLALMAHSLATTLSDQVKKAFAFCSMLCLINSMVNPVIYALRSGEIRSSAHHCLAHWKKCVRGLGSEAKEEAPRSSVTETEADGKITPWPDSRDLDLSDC
The experiment in a line: Binding assay for CB2 agonists or inverse agonists (SK-N-MC membranes, [3H]-CP-55,940). In short, it runs like this:
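Membranes from SK-N-MC cells stably expressing human CB2 were incubated with radioligand and test compounds for 90 min at 30 °C in Tris-HCl buffer, pH 7.5, with MgCl2, EDTA and fatty-acid-free BSA. Filter-bound radioactivity was counted; IC50 was derived by linear regression of percent inhibition.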

Assay [3] addresses T2, CB2 receptor. The experiment in a line: Modified functional cell-based assay (Beta-Glo luminescence), CB2 receptor. The following applies: CB2 EC50 (Receptor Functional Activity), one sample per compound, Cpd 237 n=3. The method, then: (§1) Additional functional activity studies were performed with minor modifications. Beta galactosidase activity was quantified using the luminescent Beta-Glo Assay System (Promega Corp. Madison, Wis.) and an Orion Microplate Luminometer (Berthold Detection Systems, Oak Ridge, Tenn.). The EC50 values were calculated using GraphPad Prism and a four parameter logistic equation.
(§2) The functional activity EC50 value for compounds tested (shown in Table 8) were obtained from studies in which varying compound concentrations were used. With the exception of Cpd 237 (n=3), one sample for each compound was tested.

Assay [4] addresses T1, CB1 receptor. The experiment in a line: Modified functional cell-based assay (Beta-Glo luminescence), CB1 receptor. The following applies: CB1 EC50 (Receptor Functional Activity), one sample per compound, Cpd 237 n=3. The protocol: as §1, §2
The target in assay [5] is T2, CB2 receptor. The experiment in a line: Modified binding assay, CB2 receptor in CHO cells, [3H]WIN 55212. The following applies: [3H]WIN 55212 0.8 nM, 120 minutes at 37° C. The protocol:
(§3) Additional receptor binding studies were performed with minor modifications as detailed below.
(§4) The human CB1 and CB2 receptors were stably expressed in CHO cells as described in Rinaldi-Carmona, M., Calandra, B., Shire, D., Bouaboula, M., Oustric, D., Barth, F., Casellas, P., Ferrara, P. and Le Fur, G. (1996) J. PharmacoL Exp. Ther., 278: 871-878 and Munro, S., Thomas, K. L. and Abu-Shaar, M. (1993) Nature, 365: 61-65, respectively. [^3H]CP 55940 (0.5 nM) was used as the radioligand for the CB1 receptor binding assay. [^3H]WIN 55212 (0.8 nM) was used as the radioligand for the CB2 receptor binding assay. Incubation was carried out for 120 minutes at 37° C.
(§5) The specific ligand binding to the receptors is defined as the difference between the total binding and the nonspecific binding determined in the presence of an excess of unlabelled ligand. The results are expressed as a percent of control specific binding ((measured specific binding/control specific binding)×100) obtained in the presence of the test compounds.
(§6) The IC50 values (concentration causing a half-maximal inhibition of control specific binding) were determined by non-linear regression analysis of the competition curves generated with mean replicate values using Hill equation curve fitting (where Y=specific binding, D=minimum specific binding, A=maximum specific binding, C=compound concentration, C50=IC50 and nH=slope factor): (Y=D+[(A−D)/(1+(C/C50)^nH)] CB1 and CB2 Receptor Binding Results
(§7) For compounds tested, an IC50 binding value was obtained from percent inhibition studies in which various test concentrations were used.

The target in assay [6] is T1, CB1 receptor. The experiment in a line: Modified binding assay, CB1 receptor in CHO cells, [3H]CP 55940. The following applies: [3H]CP 55940 0.5 nM, 120 minutes at 37° C. The method, then: as §3, §4, §5, §6, §7
Assay [7] deals with Male CD-1 mice. Kind of assay: Postoperative inflammatory ileus, upper gastrointestinal transit (FITC-dextran, Geometric Center). It is filed as in vivo. The following applies: Surgical Manipulation, dose 1 mg/kg, 24 hr post-laparotomy, mean ± SE; scale 1 to 15. The protocol: (§8) Male CD-1 mice were anesthetized by inhaled isoflurane and prepared for surgery. The abdomen was shaved of hair and treated with antiseptic solution. The animal was then covered with a surgical drape, leaving the abdomen exposed. A mid-line laparotomy was performed, and the entire small intestine was exteriorized onto the sterile drape. Using two moistened, sterile, cotton-tipped applicators, the small intestine was then gently compressed along its length from the ligament of Treitz to the ileo-cecal junction. The small intestine was then returned to the abdominal cavity and the incision closed by two layers of sutures.
(§9) Age-matched mice were randomly assigned to groups (6 animals per group) and injected intraperitoneally (i.p.) with “vehicle” (a mixture of 5% ethanol/5% Tween80/90% of 5% dextran in water w/v) containing various doses of a test compound 1 hr prior to laparotomy. The second group was injected intraperitoneally with vehicle. The third group was administered intragastrically (1 mg/kg) a mixture (1 mg/mL) of dexamethasone in 20% hydroxypropyl methyl dextran in water, once per day for two days prior to surgery and 5 hrs post-laparotomy. The fourth group received no intervention and served as naïve controls.
Upper gastrointestinal transit was measured 24 hr post-laparotomy. Mice were fed a test meal consisting of 150 μL of FITC-dextran solution (5 mg/mL of 70,000 molecular weight dextran conjugated to fluorescein-isothiocyanate in 0.5% hydroxypropyl methylcellulose/deionized water) administered intragastrically by an 18 gauge feeding tube. Following oral administration of the FITC-dextran test meal, animals were returned to their home cages. Following a 45 min test period, mice were euthanized by isoflurane overdose and exsanguination. The entire gastrointestinal tract from the lower esophageal sphincter to the terminal colon was removed. The bowel segments were opened along the mesenteric border. The tissue and luminal contents of the stomach, 10 equal segments of small intestine, the cecum, and 3 equal segments of colon were placed in individual Eppendorf tubes containing 1 ml of PBS. The tissue was vigorously mixed on a tabletop vortex, and solid materials were pelletized by centrifugation. Aliquots of the cleared supernatant were read in duplicate on a 96-well fluorescence plate reader to quantify the magnitude of the fluorescent signal in each segment of bowel.
These values were used to calculate the Geometric Center (REF), which is defined as the weighted average distribution of the fluorescent signal along the gastrointestinal tract: GC=Σ(% of total fluorescent signal per segment×segment number)/100,
Higher GC values represent faster rates of transit on scale of 1 to 15.
Surgical manipulation of the small bowel leads to a significant delay in gastrointestinal transit, going from a Geometric Center of 8.4 in normal mice to 3.3 in vehicle treated animals.

The test system of assay [8] is Male CD-1 mice. Kind of assay: Postoperative inflammatory ileus, microscopic myeloperoxidase histological examination. It is filed as in vivo. The following applies: Surgical Manipulation, dose 1 mg/kg, 24 hr post-laparotomy, mean ± SE. The protocol:
as §8, §9
Microscopic histological examination was performed on harvested tissues 24 hr post-laparotomy. […] Hanker-Yates reagent (Polysciences Inc.) forms an insoluble, blue-black polymer in the presence of hydrogen peroxide and peroxidase enzyme activity. Segments of mid small bowel were collected from the centrifuge tubes described in the previous section. Whole mounts of the muscle layer were prepared by opening the tube of bowel along the mesenteric border and pinning the tissue flat in a Sylgard™ lined Petri dish with the mucosal surface facing upward. The tissue was stretched to 1.5 times its length and 2.5 times its width, and the mucosa removed by fine dissection. The remaining muscularis whole mounts were then fixed with 100% ethanol for 45 min, washed 3 times with PBS, and incubated for 20 min in PBS containing 0.1% hydrogen peroxide and 1 mg/ml Hanker-Yates reagent (Polysciences, Inc). The reagent is polymerized in the presence of hydrogen peroxide and peroxidase activity to form a blue-black deposit. Following a second wash with PBS, the whole mounts were mounted on glass slides, cover-slipped, and viewed on an optical microscope. Myeloperoxidase containing leukocytes were counted in 6 to 8 adjacent 200× optical fields, and the mean cell counts were calculated and recorded.
The presence of myeloperoxidase (MPO) positive immune cells in the intestinal muscularis is rare in normal animals.

Where [9] appears, read: test concentration 0.2 μM (footnote 2), 0.2 µM.

pEC50, pIC50: −log10 of the molar value.

T1 sequence (P21554 whole entry): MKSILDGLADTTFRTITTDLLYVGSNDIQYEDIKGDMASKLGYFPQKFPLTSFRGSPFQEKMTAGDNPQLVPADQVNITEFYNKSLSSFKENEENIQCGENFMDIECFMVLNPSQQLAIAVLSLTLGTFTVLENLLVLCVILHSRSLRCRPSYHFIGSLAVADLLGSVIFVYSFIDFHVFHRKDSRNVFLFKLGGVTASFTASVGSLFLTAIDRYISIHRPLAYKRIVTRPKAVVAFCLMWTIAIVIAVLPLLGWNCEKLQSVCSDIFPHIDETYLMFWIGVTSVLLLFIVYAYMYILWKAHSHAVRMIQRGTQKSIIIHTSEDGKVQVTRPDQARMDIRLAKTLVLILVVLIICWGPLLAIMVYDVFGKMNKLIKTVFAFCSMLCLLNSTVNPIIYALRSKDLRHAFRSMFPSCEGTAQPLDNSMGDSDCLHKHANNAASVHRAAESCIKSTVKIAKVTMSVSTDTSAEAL

In the case of `C[C@H](NS(=O)(=O)/C=C/c1n[nH]c2c1CCCCC2Cc1cccc(F)c1)c1ccccc1` (single isomer, unassigned) [Cpd 233, (2E)-2-[(8S*)-8-(3-fluoro-benzyl)-1,4,5,6,7,8-hexahydro-cycloheptapyrazol-3-yl]-ethenesulfonic acid [(1S)-1-phenyl-ethyl]-amide], at CB1 receptor [1] (setting [9]), the “CB1 receptor binding percent inhibition” value is given as “^(2)0%”. In addition, the “CB2 receptor binding percent inhibition” value on CB2 receptor [2] (setting [9]) is given as “^(2)20%”. In addition, the figures for the pEC50 at CB2 receptor [3] and on CB1 receptor [4] were approximately 5.89 and approximately 5.36, respectively.
For the compound `O=C(N[C@H](CO)c1ccccc1)c1n[nH]c2c1CCCCC2Cc1cccc(Cl)c1` (stereo partly drawn) [Cpd 164, 8-(3-chloro-benzyl)-1,4,5,6,7,8-hexahydro-cycloheptapyrazole-3-carboxylic acid [(1S)-2-hydroxy-1-phenyl-ethyl]-amide], the inhibition at 0.2 µM at CB1 receptor [1] (read-out: CB1 receptor binding percent inhibition, test concentration 0.2 μM (footnote 2)) turned out to be 26%; on CB2 receptor [2] (read-out: CB2 receptor binding percent inhibition, test concentration 0.2 μM (footnote 2)) it was 94%. The figures for the pIC50 on CB2 receptor [5] and on CB1 receptor [6] were 6.64 and 6.06, respectively. Besides, the pEC50 (commonly −log10 of the EC50, conventionally taken in molar units) on CB2 receptor [3] is 7.60; at CB1 receptor [4], less than 6.00.
Turning to `C[C@@H]1C[C@H]2[C@@H]3CCC4=CC(=O)C=C[C@]4(C)[C@@]3(F)[C@@H](O)C[C@]2(C)[C@@]1(O)C(=O)CO` [dexamethasone, reference compound], in the assay on Male CD-1 mice [7], the “Geometric Center (upper gastrointestinal transit)” value is listed as 6.0 ± 0.14. Moreover, in the assay with Male CD-1 mice [8], the “MPO-Positive Cells (Per 200× Optical Field)” value is on record as 29.8 ± 3.9.
